Reference: publication PMC3636874, “An Antedrug of the CXCL12 Neutraligand Blocks Experimental Allergic Asthma without Systemic Effect in Mice” (The Journal of Biological Chemistry, 2013)
Like-named read-outs stand apart in the source and are kept apart here.

Assays:
[1] = molecular target: T1, CXCL12 binding to CXCR4 (Homo sapiens, UniProt P48061); experiment: FRET-based binding of CXCL12-TR to EGFP-hCXCR4 (competition); settings: dose-dependent
T1 construct: expressed in transfected cells
Description: FRET-based binding experiments were carried out as described ([26], [46]). Human embryonic kidney 293 cells expressing the fusion receptor EGFP-hCXCR4 were harvested in PBS (137 mM NaCl, 2.7 mM KCl, 4.3 mM Na2PO4·7H2O, 1.4 mM KH2PO4, pH 7.4) supplemented with 5 mM EDTA, pH 7.4, centrifuged, and resuspended in HEPES-bovine serum albumin (BSA) buffer (10 mM HEPES, 137.5 mM NaCl, 1.25 mM MgCl2, 1.25 mM CaCl2, 6 mM KCl, 10 mM glucose, 0.4 mM NaH2PO4, 0.1% bovine serum albumin (w/v), pH 7.4). Cells were used at a concentration of 10^6 cells/ml. Apparent affinities of the different ligands were determined by real-time fluorescence monitoring ligand-receptor interactions. […] Fluorescence emitted at 510 nm (excitation at 470 nm) was recorded at 21 °C using a Fluorolog 2 spectrofluorimeter (SPEX) and sampled every 0.3 s. Binding of CXCL12-TR to EGFP-labeled CXCR4 was detected as a reversible decline of emission at 510 nm, due to energy transfer from excited EGFP to TR. For competition experiments, the fluorescent chemokine was preincubated for 1 h at room temperature with or without various concentrations of each chalcone. Then the premix was added, and fluorescence was recorded until equilibrium was reached (300 s). Data were analyzed using Kaleidagraph 3.08 software (Synergy Software, Reading, PA).

[2] = Chemical stability in PBS pH 7.4; type: physicochemical
Description: Solubility and stability studies were performed on a Gilson HPLC system with a photodiode array detector, an autosampler, and a Valco injector. Data acquisition and processing were performed with Trilution LC version 2.0 software. Measurements were carried out at 21 ± 1 °C. A 2.6-μm Kinetex column (50 × 4.6 mm) was used for stability studies in biological media, and a 5-μm Luna C18(2) column (50 × 4.6 mm) was used for solubility and chemical stability analysis. Both columns were purchased from Phenomenex. The injection volume was 20 μl, the mobile phase flow rate was 2 ml/min, and the following program was applied for the elution: 0–0.2 min, 0% B; 0.2–2.7 min, 0–100% B; 2.7–3.2 min, 100% B; 3.2–3.4 min, 100–0% B; 3.4–6.1 min, 0% B. Solvent B was HPLC grade acetonitrile (Sigma-Aldrich CHROMASOLV). The aqueous solvent contained 0.1% trifluoroacetic acid, and the detection wavelength was 365 nm.
Stability of compounds was assessed in PBS, pH 7.4, with or without 10% HP-βCD at 20 °C up to 24 h. For each compound, the 10 mM DMSO stock solution was diluted to a final incubation concentration of 10 μM with 0.1% DMSO. 20 μl of sample were removed at t0, 1, 2, 4, 6, 8, 10, and 24 h and directly injected onto the HPLC. The percentage of remaining test compound relative to t0 was measured by monitoring the peak area on the chromatogram.

[3] = General toxicity in vivo: body and spleen weight; design: species or system mouse; settings: for Weight, Body (percentage of control animals) / Weight, Spleen: three days
Description: General toxicity was evaluated in vivo in mice that received CN-chalcone 4 intraperitoneally at a dose of 350 μmol/kg (100 mg/kg) per day during three consecutive days. As reported in Table 2, there was no body or spleen weight loss nor any modification of cytochrome c oxidase activity in lung and heart, indicating no toxicity of CN-chalcone 4 administered at the highest active dose.

[4] = design: method as in PMID 24900366; settings: cited from earlier work
[5] = design: method as in PMID 24900366; settings: cited from earlier work; remark: listed apart in the source
[6] = OVA-challenged mice, intraperitoneal 350 μmol/kg per day

Structure (SMILES)	concentration giving maximal inhibition of CXCL12 binding to CXCR4 [1]	half-life at 10 μM ([2]; PBS pH 7.4, 20 °C, read-out: Stability half-life (t1/2), PBS (converted))	half-life at 10 μM ([2]; PBS with 10% HP-βCD, PBS pH 7.4 with 10% HP-βCD, 20 °C, read-out: Stability half-life (t1/2), PBS, 10% β-cyclodextrine (converted))	Weight, Body (percentage of control animals) [3, 6]	Weight, Spleen [3, 6]	Weight, Body (percentage of control animals) ([3]; mice without OVA, intraperitoneal 350 μmol/kg (100 mg/kg) per day, carboxymethylcellulose)	Weight, Spleen ([3]; mice without OVA, intraperitoneal 350 μmol/kg per day)	general toxicity in vivo (body and spleen weight, cytochrome c oxidase activity in lung and heart) ([3]; mice, intraperitoneal 350 μmol/kg (100 mg/kg) per day during three consecutive days)	Stability half-life (t1/2), PBS ([4]; PBS pH 7.4)	Stability half-life (t1/2), PBS, 10% β-cyclodextrine ([4]; PBS with 10% HP-βCD)	percentage of starting molecule recovered, PBS ([4]; at 10 h)	percentage of starting molecule recovered, PBS, 10% β-cyclodextrine ([4]; at 10 h)	Stability half-life (t1/2), lung homogenate ([5]; mouse lung homogenate)	percentage of starting molecule recovered, lung homogenate ([5]; time not given)
COc1cc(/C=C(\C#N)C(=O)c2ccc(Cl)cc2)ccc1O [CN-chalcone 4, (E)-2-(4-chlorobenzoyl)-3-(4-hydroxy-3-methoxyphenyl)acrylonitrile]	> 1 µM	6 h	16.3 h	99.6 ± 6%	123 ± 4 mg	99.6 ± 6%	125 ± 11 mg	no toxicity						
COc1cc(/C=C/C(=O)c2ccc(Cl)cc2)ccc1O [chalcone 4]									> 10 h	> 10 h	98%	95%	> 6 h	60%
